# Values of other authors, collected in patent US9446004B2, “Transdermal nicotine salt delivery system” (ALZA Corporation, priority 2005, dated 2016).
# Where two headings read alike, the source gives them in different places.
smiles,measurement,setting,value
CN1CCCC1c1cccnc1 (centres unmarked) [Nicotine],pKa,first pKa,about 8
same,pKa,second pKa,~3
